According to the NIST ThermoML archive (doi:10.1016/j.tca.2009.06.015):

Columns and labels:
[1] = xn = mol fraction of the nth substance listed; conditions: 308.15 K, 101 kPa, Liquid; for viscosity: Capillary tube (Ostwald / Ubbelohde) method; for mass density: Vibrating tube method
[2] = refractive index (Na D-line) (dimensionless); xn = mol fraction of the nth substance listed; conditions: 101 kPa, Liquid, Standard Abbe refractometry

CCCC(C)O (stereo not given) [pentan-2-ol] + CC#N
[1]
Conditions | mass density [kg/m3] | viscosity [mPa·s]
x2 = 0 | 796.94 | –
x2 = 0.116 | 794.1 | 1.296
x2 = 0.1727 | 792.65 | 1.15
x2 = 0.2827 | 789.63 | 0.9576
x2 = 0.3546 | 787.6 | 0.846
x2 = 0.4458 | 784.92 | 0.7168
x2 = 0.5366 | 782.17 | 0.6057
x2 = 0.6488 | 778.55 | 0.5051
x2 = 0.7671 | 774.47 | 0.4111
x2 = 0.8793 | 770.45 | 0.3442
x2 = 0.9578 | 767.48 | 0.3202

refractive index, [2]
Conditions | 293.15 K | 298.15 K | 303.15 K | 308.15 K
x2 = 0 | 1.406 | 1.4045 | 1.3724 | 1.3703
x2 = 0.116 | 1.4035 | 1.4012 | 1.3715 | 1.3694
x2 = 0.1727 | 1.402 | 1.3999 | 1.3707 | 1.3687
x2 = 0.2827 | 1.3981 | 1.3965 | 1.3694 | 1.3679
x2 = 0.3546 | 1.3951 | 1.3941 | 1.3684 | 1.367
x2 = 0.4458 | 1.3908 | 1.3901 | 1.3666 | 1.3657
x2 = 0.5366 | 1.3858 | 1.3848 | 1.3641 | 1.3637
x2 = 0.6488 | 1.3779 | 1.3764 | 1.3608 | 1.3605
x2 = 0.7671 | 1.3674 | 1.3657 | 1.3561 | 1.3557
x2 = 0.8793 | 1.3561 | 1.3548 | 1.35 | 1.3491
x2 = 0.9578 | 1.3478 | 1.3461 | 1.3433 | 1.3417
